Source: patent publication US7678774B2 (priority 2003, dated 2010)

How the values were obtained:
coronavirus (SARS) = conditions: cited from earlier work
[1] = system: human coronavirus strain OC-43; type: cell-based
[2] = system: human coronavirus strain OC-43; type: cell-based; remark: listed apart in the source
[3] = system: Mouse Hepatitis Virus Type-3 (MHV-3); conditions: in vivo; cited from earlier work
[4] = system: Mouse Hepatitis Virus Type-3 (MHV-3); conditions: in vivo; cited from earlier work; remark: listed apart in the source
[5] = system: Four human tumor cell lines; conditions: cited from earlier work

## NC(=O)c1ncn([C@@H]2O[C@H](CO)[C@@H](O)[C@H]2O)n1 [ribavirin]
Coronavirus (SARS)
  Effect on the SARS coronavirus: no effect

## rIn.r(C12U)n
[1]
  Inhibition of virus in viral cytopathic inhibition assay: inhibit
[2]
  Inhibition of virus in neutral red assay: inhibit
[3]
  Survival relative to untreated mice: survived up to four times longer
[4]
  Virus clearance and development of chronic hepatitis: cleared the virus quickly and did not develop chronic hepatitis
[5]
  Antiproliferative interaction with interferons: worked synergistically with all interferons in all cell lines studied
